Bridge positions count the residues as written; N and C are the ends. Peptide text beside a SMILES is read from it.
Columns and labels:
Format in all cases: cell-based
human Cav2.2 = details: 10 μM; SD
[1] = test system: potassium channel currents in rat DRG neurons; details: 10 μM
[2] = test system: calcium channel currents in rat DRG neurons
[3] = test system: sodium channel currents in rat DRG neurons; details: 10 μM; n = 3

CSCC[C@@H]1NC(=O)[C@H](CCC(N)=O)NC(=O)[C@@H]2CSSC[C@@H](C(=O)N3CCC[C@H]3C(N)=O)NC(=O)[C@@H]3CSSC[C@H](NC(=O)[C@@H](NC(=O)CNC(=O)[C@@H](N)CCC(N)=O)CSSC[C@H](NC(=O)[C@H](C)NC(=O)[C@H](C)NC1=O)C(=O)N[C@@H](CC(N)=O)C(=O)N1CCC[C@H]1C(=O)N1CCC[C@H]1C(=O)N1CCC[C@H]1C(=O)N3)C(=O)N1CCC[C@H]1C(=O)N1CCC[C@H]1C(=O)NCC(=O)N[C@@H](C(C)C)C(=O)N2 [Vr3a] (H-QGCCPPGVCQMAACNPPPCCP-NH2; disulfide 3-14, 4-19, 9-20)
inhibition of human Cav2.2 currents (human Cav2.2): 12.86% ± 4.93% | increase of the peak potassium currents ([1]; SD): 19.61 ± 5.12% | shift in the current-voltage relationship of potassium channels ([1]; n = 3): do not induce a shift | inhibition of the peak calcium currents ([2]; 10 μM, SD): 31.26% ± 4.53% | shift in the current-voltage relationship of calcium channels ([2]; 10 μM, n = 3): do not induce a shift | IC50 ([2]; SD): 19.3 ± 4.32 µM | effect on the peak of the sodium currents [3]: no effects | shift in the activation curve of sodium channels (change of V50) [3]: ~ 10 mV | shift in the current-voltage relationship of sodium channels [3]: ~ 10 mV | shift in the inactivation curve of sodium channels (change of V50) [3]: ~ 5 mV | shift in the recovery curve, delaying sodium channel recovery [3]: ~ 0.002 second
